Data set [1] can be described thus: Rat cerebrospinal fluid (CSF) pharmacokinetic properties. In kind it is in vivo. To be noted: male, Sprague-Dawley; for concentration at 1 h: CSF, PO 10 mg/kg in PEG400, 1 h post-dosing, read-out: CSF Conc (nM @ 1 h); for Kp uu at 1 h: PO 10 mg/kg, unbound CSF / unbound plasma. As for the experimental part: PK in rats was determined following oral dosing. For the oral (PO) experiments, a group of 6 male Sprague-Dawley rats with an indwelling catheter placed in the cisterna magna were used. The PO group was dosed with 3 or 10 mg/kg of a compound formulated as a solution in PEG400. PO doses were administered by oral gavage and delivered to the stomach using a syringe and gavage tube. Following oral dosage administration, the gavage tube was flushed with approximately 0.5 mL of water to ensure complete delivery of the full dose.
Plasma and CSF samples were collected as follows: samples of CSF and blood were collected at 1 hour and 2 hours post-dosing. CSF samples (0.05 mL) were collected through the intracisternal catheter. Blood samples (0.25 mL) were collected through retro-orbital sampling. These samples were kept on ice until processed for plasma. Blood samples were centrifuged at 3200 rpm for 5 minutes at approximately 5° C. within 1 hour of collection. Plasma was directly transferred to a 96-well plate tube (0.125 mL). Plug caps were placed on the tubes and the tubes frozen at approximately −70° C. and stored until analysis.
Plasma was collected and analyzed for the presence of compound.
The compound in question and the internal standard were extracted from plasma and CSF by precipitation. Samples were analyzed using liquid chromatography (LC) with tandem mass spectrometric detection (MS/MS) using electrospray ionization. The standard curve range was from 1 to 1000 ng/mL.
Kp,uu is defined as the concentration ratio of unbound drug in CSF to unbound drug in plasma. Unbound drug in plasma (or free plasma concentration) is calculated by multiplying the total plasma concentration by the unbound fraction as determined by plasma protein binding. The CSF concentration is then divided by the free plasma concentration to determine the Kp,uu. (See e.g., Di et al., J. Med. Chem., 56, 2-12 (2013)).

Data set [2] concerns sGC. Description: cGMP neuronal cell-based assay. To be noted: rat primary hippocampal neurons; 30 μM DETA-NO; 50% of high control (10 μM Compound Y); read-out: sGC-neuron Abs EC50. As for the experimental part:
Rat primary neurons were isolated from fetuses of 18-day pregnant Sprague-Dawley females. The fetuses were collected in Hanks' balanced salt solution (HBSS) and brains were rapidly removed. The cerebral hippocampi were isolated and mechanically fragmented. Further tissue digestion was performed with 0.25% (wt/vol) trypsin solution in HBSS without Ca2+ and Mg2+ for 15 min at 37° C. After trypsination, cells were washed and resuspended in neurobasal medium supplemented with 0.5 mM L-glutamine, 12.5 uM glutamic acid, 2% B-27 and 100 U/mL penicillin, and 100 μg/mL streptomycin. Cells were plated at a density of 4×10^4 cells/well in a poly-D-lysine coated 384-well flat clear-bottom plate (Corning Cat No 354662). Cells were incubated 6-7 days at 37° C. in a humidified chamber with 5% CO2. Media was removed and cells were washed 1× with HBSS containing Ca2+ and Mg2+, and replaced with 40 uL HBSS containing 0.5 mM IBMX, and incubated for 15 minutes at 37° C. 10 uL of a 5× stock of test compounds with diethylenetriamine NONOate (DETA-NO) was added. Final concentration of DETA-NO was 30 μM. Cells were incubated for 20 min at 37° C. Medium was removed, 50 uL of ice-cold 10% acetic acid was added, and incubated for 60 minutes at 4° C. Following centrifugation at 4° C. for 5 minutes at 1000×g to pellet cell debris, the supernatant was aspirated to a clean plate and the samples were analyzed for cGMP content. cGMP concentrations were determined from each sample using LC-MS/MS.
Data were normalized to a high control using the following equation: 100*(Sample−Low Control)/(High Control−Low Control), where the low control is the average of 15 samples treated with 1% DMSO, and the high control is the average of 15 samples treated with 10 μM of the known sGC stimulator Compound Y (depicted in Example 2). Data were fit using a 4-parameter fit (log(agonist) vs. response—variable slope) using GraphPad Prism Software v.5. n=2 for all compounds. […]

A value given as a limit tells only on which side of the number the result lay.

`Fc1ccccc1Cn1nc(-c2nc(C(F)(F)F)n[nH]2)c2cccnc21` [Compound I-2]: in data set [1], the concentration at 1 h was found to be 62.9 nM and the Kp uu at 1 h was determined as 3.16. Besides, the EC50 (in general, the concentration giving half of the maximal effect) in data set [2] is not above 100 nM.

Turning to `FC(F)(F)c1n[nH]c(-c2nc(Cc3cncnc3)c3ccccn23)n1` [Compound I-5], in data set [1], the concentration at 1 h is 446 nM and the Kp uu at 1 h worked out at 3.26. In addition, in data set [2], the EC50 is not above 100 nM.
